Experimental findings from patent US20260283153A1 (priority 2023, published 2026) are described below.

The subject of one assay is Phytophthora infestans. Kind of assay: whole plant or invertebrate. The format is in vivo. As to conditions: in Solanum lycopersicum, foliar, read-out: control of Phytophthora infestans.
A further assay has as its system Plasmopara viticola. Description: whole plant or invertebrate. Format: in vivo. Conditions: foliar, read-out: control of Plasmopara viticola.
The subject of the next assay is Pythium ultimum. Kind of assay: Pythium ultimum/liquid culture (seedling damping off). The format is cell-based. Conditions: Globisporangium ultimum, liquid culture, growth inhibition determined photometrically 2-3 days after application, compared to untreated control. Here is the method: Mycelia fragments and oospores of a newly grown liquid culture of the fungus are directly mixed into nutrient broth (PDB potato dextrose broth). After placing a (DMSO) solution of test compound into a microtiter plate (96-well format), the nutrient broth containing the fungal mycelia/spore mixture is added. The test plates are incubated at 24° C. and the inhibition of growth is determined photometrically 2-3 days after application.

The test system of assay [1] is Monographella nivalis (Microdochium nivale). Kind of assay: Monographella nivalis (Microdochium nivale)/liquid culture (foot rot cereals). Format: cell-based. As to conditions: liquid culture, growth inhibition determined photometrically 4-5 days after application, compared to untreated control. Here is the method:
The fungicidal activity of the compounds of the invention have been tested as follows: • Monographella nivalis (Microdochium nivale)/liquid culture (foot rot cereals) Conidia of the fungus from cryogenic storage are directly mixed into nutrient broth (PDB potato dextrose broth). After placing a (DMSO) solution of test compound into a microtiter plate (96-well format), the nutrient broth containing the fungal spores is added. The test plates are incubated at 24° C. and the inhibition of growth is determined photometrically 4-5 days after application.

In the case of `CC(=O)Nc1ccc(-c2cnc3cnc(C(=O)N(C)c4ccc(Cl)cc4)cn23)cc1` [Compound 37, 3-(4-acetamidophenyl)-N-(4-chlorophenyl)-N-methyl-imidazo[1,2-a]pyrazine-6-carboxamide], the pest or weed control at 200 ppm in the assay on Phytophthora infestans and with Plasmopara viticola was not below 80% each time. For orientation: inhibition of growth means how much of the control response was suppressed. Consider `COCN(C(=O)c1cn2c(-c3ccc(NC(=O)OC)nc3)cnc2cn1)c1ccc(F)c(OC)c1` [Compound 1, methyl N-[5-[6-[(4-fluoro-3-methoxy-phenyl)-(methoxymethyl)carbamoyl]imidazo[1,2-a]pyrazin-3-yl]-2-pyridyl]carbamate], for which the pest or weed control at 200 ppm in the assay on Phytophthora infestans and in the assay on Plasmopara viticola was not below 80% each time. This compound had an inhibition of growth at 20 ppm with Pythium ultimum not below 80%. Take `COC(=O)Nc1ccc(-c2cnc3cnc(C(=O)N(C)c4ccc(C#N)c(OC)c4)cn23)cc1` [Compound 59, methyl N-[4-[6-[(4-cyano-3-methoxy-phenyl)-methyl-carbamoyl]imidazo[1,2-a]pyrazin-3-yl]phenyl]carbamate]: the pest or weed control at 200 ppm in the assay with Phytophthora infestans and in the assay on Plasmopara viticola was not below 80% each time. Further, the inhibition of growth at 20 ppm in the assay with Pythium ultimum was not below 80%. Take `CCOC(=O)Nc1ccc(-c2cnc3cnc(C(=O)N(C)c4ccc(Cl)cc4)cn23)cc1` [Compound 8, ethyl N-[4-[6-[(4-chlorophenyl)-methyl-carbamoyl]imidazo[1,2-a]pyrazin-3-yl]phenyl]carbamate]: the pest or weed control at 200 ppm in the assay on Plasmopara viticola is not below 80%. The compound further had an inhibition of growth at 20 ppm in assay [1] not below 80%. As for `COC(=O)Nc1ccc(-c2cnc3cnc(C(=O)N(C)c4ccc(F)c(OC)c4)cn23)cc1` [Compound 58, methyl N-[4-[6-[(4-fluoro-3-methoxy-phenyl)-methyl-carbamoyl]imidazo[1,2-a]pyrazin-3-yl]phenyl]carbamate], the pest or weed control at 200 ppm with Phytophthora infestans and in the assay with Plasmopara viticola was not below 80% each time. The inhibition of growth at 20 ppm in the assay with Pythium ultimum was not below 80%. For the compound `COC(=O)Nc1ccc(-c2cnc3cnc(C(=O)N(C)c4ccc(Cl)cc4)cn23)cc1` [Compound 28, methyl N-[4-[6-[(4-chlorophenyl)-methyl-carbamoyl]imidazo[1,2-a]pyrazin-3-yl]phenyl]carbamate], the pest or weed control at 200 ppm in the assay on Plasmopara viticola is not below 80%. In addition, the inhibition of growth at 20 ppm (with Pythium ultimum; in assay [1]) was not below 80% each time. For the compound `COC(=O)Nc1ccc(-c2cnc3cnc(C(=O)N4CCCc5cc(F)ccc54)cn23)cn1` [Compound 42, methyl N-[5-[6-(6-fluoro-3,4-dihydro-2H-quinoline-1-carbonyl)imidazo[1,2-a]pyrazin-3-yl]-2-pyridyl]carbamate], the pest or weed control at 200 ppm in the assay with Phytophthora infestans was not below 80%.

Compound `CC(=O)Nc1ccc(-c2cnc3cnc(C(=O)N(C)c4ccc(F)cc4)cn23)cc1` [Compound 38, 3-(4-acetamidophenyl)-N-(4-fluorophenyl)-N-methyl-imidazo[1,2-a]pyrazine-6-carboxamide] came in with an inhibition of growth at 20 ppm in the assay on Pythium ultimum not below 80%. On to `COc1cc(N(C)C(=O)c2cn3c(-c4ccc(NC(=O)C5CC5)cc4)cnc3cn2)ccc1F` [Compound 46, 3-[4-(cyclopropanecarbonylamino)phenyl]-N-(4-fluoro-3-methoxy-phenyl)-N-methyl-imidazo[1,2-a]pyrazine-6-carboxamide], for which, in the assay on Phytophthora infestans, the pest or weed control at 200 ppm was not below 80%. On to `COC(=O)Nc1ccc(-c2cnc3cnc(C(=O)N(CC#N)c4ccc(F)c(OC)c4)cn23)cn1` [Compound 2, methyl N-[5-[6-[cyanomethyl-(4-fluoro-3-methoxy-phenyl)carbamoyl]imidazo[1,2-a]pyrazin-3-yl]-2-pyridyl]carbamate], for which the pest or weed control at 200 ppm with Phytophthora infestans is not below 80%. In the assay on Pythium ultimum, this compound showed an inhibition of growth at 20 ppm not below 80%. As for `CC(=O)Nc1ccc(-c2cnc3cnc(C(=O)N(C)c4ccc(Br)cc4)cn23)cc1` [Compound 34, 3-(4-acetamidophenyl)-N-(4-bromophenyl)-N-methyl-imidazo[1,2-a]pyrazine-6-carboxamide], the inhibition of growth at 20 ppm (with Pythium ultimum; in assay [1]) was not below 80% in each case.

Consider `CNC(=O)Nc1ccc(-c2cnc3cnc(C(=O)N(C)c4ccc(Cl)cc4)cn23)cc1` [Compound 6, N-(4-chlorophenyl)-N-methyl-3-[4-(methylcarbamoylamino)phenyl]imidazo[1,2-a]pyrazine-6-carboxamide], for which, in the assay with Plasmopara viticola, the pest or weed control at 200 ppm is not below 80%. In assay [1], this compound registered an inhibition of growth at 20 ppm not below 80%. In the case of `COC(=O)Nc1ccc(-c2cnc3cnc(C(=O)N(C)c4ccc(F)c(OC)c4)cn23)cn1` [Compound 4, methyl N-[5-[6-[(4-fluoro-3-methoxy-phenyl)-methyl-carbamoyl]imidazo[1,2-a]pyrazin-3-yl]-2-pyridyl]carbamate], in the assay with Phytophthora infestans, the pest or weed control at 200 ppm is not below 80%. The compound also returned an inhibition of growth at 20 ppm with Pythium ultimum not below 80%. In turn, `COCC(=O)Nc1ccc(-c2cnc3cnc(C(=O)N(C)c4ccc(Cl)cc4)cn23)cc1` [Compound 27, N-(4-chlorophenyl)-3-[4-[(2-methoxyacetyl)amino]phenyl]-N-methyl-imidazo[1,2-a]pyrazine-6-carboxamide] showed an inhibition of growth at 20 ppm in the assay with Pythium ultimum not below 80%. The compound `CON(C)C(=O)Nc1ccc(-c2cnc3cnc(C(=O)N(C)c4ccc(Cl)cc4)cn23)cc1` [Compound 5, N-(4-chlorophenyl)-3-[4-[[methoxy(methyl)carbamoyl]amino]phenyl]-N-methyl-imidazo[1,2-a]pyrazine-6-carboxamide] had an inhibition of growth at 20 ppm in assay [1] not below 80%. For `COC(=O)Nc1ccc(-c2cnc3cnc(C(=O)N(CC#N)c4ccc(Cl)c(OC)c4)cn23)cn1` [Compound 3, methyl N-[5-[6-[(4-chloro-3-methoxy-phenyl)-(cyanomethyl)carbamoyl]imidazo[1,2-a]pyrazin-3-yl]-2-pyridyl]carbamate], in the assay with Phytophthora infestans, the pest or weed control at 200 ppm was not below 80%. This compound also came in with an inhibition of growth at 20 ppm with Pythium ultimum not below 80%. For `COc1cc(N(C)C(=O)c2cn3c(-c4ccc(NC(C)=O)cc4)cnc3cn2)ccc1F` [Compound 51, 3-(4-acetamidophenyl)-N-(4-fluoro-3-methoxy-phenyl)-N-methyl-imidazo[1,2-a]pyrazine-6-carboxamide], in the assay with Phytophthora infestans, the pest or weed control at 200 ppm is not below 80%. As for `CC(=O)Nc1ccc(-c2cnc3cnc(C(=O)N(C)c4ccc(C#N)cc4)cn23)cc1` [Compound 36, 3-(4-acetamidophenyl)-N-(4-cyanophenyl)-N-methyl-imidazo[1,2-a]pyrazine-6-carboxamide], in the assay with Plasmopara viticola, the pest or weed control at 200 ppm is not below 80%. As for `COc1cc(N(C)C(=O)c2cn3c(-c4ccc(NC(=O)C5CC5)nc4)cnc3cn2)ccc1F` [Compound 50, 3-[6-(cyclopropanecarbonylamino)-3-pyridyl]-N-(4-fluoro-3-methoxy-phenyl)-N-methyl-imidazo[1,2-a]pyrazine-6-carboxamide], the pest or weed control at 200 ppm with Phytophthora infestans is not below 80%. `COCN(C(=O)c1cn2c(-c3ccc(NC(=O)OC)nc3)cnc2cn1)c1ccc(C#N)c(OC)c1` [Compound 55, methyl N-[5-[6-[(4-cyano-3-methoxy-phenyl)-(methoxymethyl)carbamoyl]imidazo[1,2-a]pyrazin-3-yl]-2-pyridyl]carbamate]: the pest or weed control at 200 ppm with Plasmopara viticola was not below 80%. This compound also yielded an inhibition of growth at 20 ppm in the assay with Pythium ultimum not below 80%.

`COC(=O)Nc1ccc(-c2cnc3cnc(C(=O)N4CCN(C)c5cc(F)ccc54)cn23)cn1` [Compound 53, methyl N-[5-[6-(6-fluoro-4-methyl-2,3-dihydroquinoxaline-1-carbonyl)imidazo[1,2-a]pyrazin-3-yl]-2-pyridyl]carbamate] displayed an inhibition of growth at 20 ppm in the assay on Pythium ultimum not below 80%. Same read-out and setting: the result for `COC(=O)Nc1ccc(-c2cnc3cnc(C(=O)N(C)c4ccc(C#N)cc4)cn23)cc1` [Compound 9, methyl N-[4-[6-[(4-cyanophenyl)-methyl-carbamoyl]imidazo[1,2-a]pyrazin-3-yl]phenyl]carbamate] reads not below 80%.
